Results as given in US20210315893A1 (Galapagos NV, priority 2017, published 2021).
Like-named read-outs stand apart in the source and are kept apart here.

What was measured:
HFL-1 cells [1] = test: IL8 assay in the presence of Human Serum Albumin; conditions: HFL1, read-out: HSA IL8 EC50
HFL-1 cells [2] = test: IL-8 production assay (S1P induced IL-8); format: cell-based; conditions: Homo sapiens, HFL1; S1P (1 μM) induced IL-8 in HFL-1 cells, starvation medium without HSA; read-out: IL8 EC50
Summary of the method: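 HFL-1 human fetal lung fibroblasts were starved in F12K/1% FBS, then given compound for 1 h (10-point, 1/3 dilution, 30 μM top, 0.3% DMSO final). S1P was added at 1 μM final for 16–24 h at 37 °C, and secreted IL-8 in supernatant quantified by ELISA.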

[3] = target: T1, human GPCR sphingosine 1-phosphate receptor 2 (Homo sapiens, UniProt O95136); test: S1PR2 antagonist Ca2+ flux assay; format: cell-based; conditions: antagonist mode, CHO-S1PR2 cells, S1P at EC80, Ca2+ fluorescence; read-out: S1P2 EC50 (nM), S1P2 antagonist EC50
T1 construct: host or cells: CHO
T1 sequence (O95136 whole entry): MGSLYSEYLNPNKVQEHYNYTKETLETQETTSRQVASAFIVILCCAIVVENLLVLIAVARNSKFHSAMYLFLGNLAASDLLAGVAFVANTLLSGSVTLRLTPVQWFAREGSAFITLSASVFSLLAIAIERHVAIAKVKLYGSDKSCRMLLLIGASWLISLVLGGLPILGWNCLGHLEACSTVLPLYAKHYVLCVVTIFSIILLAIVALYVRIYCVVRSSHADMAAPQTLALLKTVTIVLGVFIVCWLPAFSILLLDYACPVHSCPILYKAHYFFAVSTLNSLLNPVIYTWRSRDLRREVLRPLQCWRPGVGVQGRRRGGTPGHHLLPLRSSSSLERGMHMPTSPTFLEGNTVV
Summary of the method: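 CHO cells stably expressing human S1PR2, serum-starved 1 h, Fluo8-loaded; compound-evoked Ca2+ fluorescence read 3 min (agonist mode), then after 15 min S1P at EC80 added and read 3 min (antagonist mode). Max/baseline fluorescence ratios normalised to vehicle and S1P EC100 or EC50 controls; EC50 derived.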

[4] = target: T2, human GPCR sphingosine 1-phosphate receptor 5 (Homo sapiens, UniProt Q9H228); test: S1PR5 selectivity Ca2+ flux assay (antagonist readout); format: cell-based; conditions: CHO cells overexpressing human S1PR5 and Gq, agonist at EC80 (20 nM), read-out: S1P5 EC50 (nM), S1P5 antagonist EC50
T2 construct: host or cells: CHO
T2 sequence (Q9H228 whole entry): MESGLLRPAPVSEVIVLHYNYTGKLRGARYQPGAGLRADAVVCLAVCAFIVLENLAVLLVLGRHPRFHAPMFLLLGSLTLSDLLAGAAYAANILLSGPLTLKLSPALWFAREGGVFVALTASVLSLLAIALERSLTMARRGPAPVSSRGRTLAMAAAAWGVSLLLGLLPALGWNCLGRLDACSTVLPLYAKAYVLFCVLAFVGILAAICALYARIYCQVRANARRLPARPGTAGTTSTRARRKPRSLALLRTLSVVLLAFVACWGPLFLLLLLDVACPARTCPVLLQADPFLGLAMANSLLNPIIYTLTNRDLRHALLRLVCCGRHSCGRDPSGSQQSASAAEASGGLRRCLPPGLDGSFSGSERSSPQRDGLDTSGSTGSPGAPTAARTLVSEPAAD
Excerpt: To evaluate the selectivity of the compounds for S1PR2 over S1PR1 and S1PR5, asimilar assay set upas described above for theS1PR2 calcium flux assays waspeformed: CHO cells stably overexpressing human GPCR sphingosine 1-phosphate receptor 1 and Gq protein (Euroscreen, FAST-0197A) or overexpressing human GPCR sphingosine 1-phosphate receptorS5 and Gq protein were used (Perkin Elmer, ES-593-A). In case of the S1PR5 assay triggering was done with an SPR5 specific agonist instead of with S1P (Hobson et al., 2015).
(§1) 50 μL of Chinese hamster ovary (CHO) cells stably overexpressing human S1PR1 or S1PR5 are seeded in 384 well sterile microplates (7,500 cells/well or 10,000 cells/well respectively) and are incubated overnight at 37° C. under 5% CO2. Cells are subsequently washed twice with 25 μL/well of starvation medium (F-12 Ham's medium containing 0.1% fatty acid free bovine serum albumin (FAF BSA)). After one h starvation at 37° C., 5% CO2, cells are loaded with 25 μL of Fluo 8 dye diluted in Hank's balanced salt solution (HBSS) with 20 mM Hepes complemented with 5 mM of probenecid following the recommendations of the manufacturer (one h at 37° C., 5% CO2). Dilution series of compounds are prepared in HBSS buffer with 20 mM Hepes and 0.1% BSA (FAF). 10 μL of diluted compound is added to the cells using the FDSS/pCELL and intracellular calcium changes are measured immediately by recording fluorescence during 3 min (agonist readout). The ratio of maximal signal over background before compound injection is used to determine compound response.
After an incubation of 15 min at 37° C., following the agonist readout, the plates are transferred to the FDSS/pCELL reader. Cells are stimulated with 10 μL of EC80 concentration of S1P (6 nM for S1P1 and 20 nM for S1P5) and intracellular calcium changes are measured immediately by recording fluorescence during three min (antagonist readout). The ratio of maximal signal over background before S1P injection was used to determine the inhibitory effect ofthe compound.
(§2) Raw data obtained in each experiment (ratio of maximal signal over background for calcium mobilization assays) were normalized in percentage of activation (agonist mode) or inhibition (antagonist mode) using positive and negative experiment controls. Each individual plate quality was assessed by evaluation of Z′ factor calculated with raw data using the following equation
(§3) Y=bottom+(top−bottom)/(1+(10^(Log IC50−X)*Hillslope)) where X is the logarithm of the concentration of the compound

S1PR2 = target: T3, S1PR2 (Homo sapiens, UniProt O95136); test: S1PR2 binding assay (competition with radioactively labeled S1P, SpA); conditions: membranes from stable cell line over expressing S1PR2, SpA beads; read-out: S1P2 EC50 (nM), S1PR2 binding EC50
T3 construct: expressed in transfected cells
T3 sequence (O95136 whole entry): as the sequence (O95136 whole entry) above
Summary of the method: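 Competition with [3H]S1P for membranes from a stable S1PR2-overexpressing cell line, 20 μg/well, captured on PVT-WGA SPA beads, in 20 mM Tris pH 7.5, 10 mM MgCl2, 100 mM NaCl, 0.4% fatty-acid-free BSA, 1 mM Na3VO4. 2 h at room temperature, then centrifugation and scintillation counting.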

[5] = target: T4, human GPCR sphingosine 1-phosphate receptor 1 (Homo sapiens, UniProt P21453); test: S1PR1 selectivity Ca2+ flux assay (antagonist readout); format: cell-based
T4 construct: host or cells: CHO
T4 sequence (P21453 whole entry): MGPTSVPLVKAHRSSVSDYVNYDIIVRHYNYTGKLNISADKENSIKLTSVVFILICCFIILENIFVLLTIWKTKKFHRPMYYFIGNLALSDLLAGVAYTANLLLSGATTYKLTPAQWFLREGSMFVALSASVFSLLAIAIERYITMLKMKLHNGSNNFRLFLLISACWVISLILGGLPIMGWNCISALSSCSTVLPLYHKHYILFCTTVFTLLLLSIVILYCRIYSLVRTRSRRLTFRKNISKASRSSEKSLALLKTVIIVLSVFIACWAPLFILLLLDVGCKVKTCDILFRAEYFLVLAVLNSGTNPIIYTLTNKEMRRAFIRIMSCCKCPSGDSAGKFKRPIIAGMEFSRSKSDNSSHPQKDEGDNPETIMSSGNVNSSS
Experimental: as §1
After an incubation of 15 min at 37° C., following the agonist readout, the plates are transferred to the FDSS/pCELL reader. […] The ratio of maximal signal over background before S1P injection was used to determine the inhibitory effect ofthe compound.
as §2, §3

Compound: O=C(O)Cn1nc(Cc2nc3nc(OCC4CC4)c(Cl)cc3[nH]2)c2ccccc2c1=O [Compound 257, 2-[4-[[6-chloro-5-(cyclopropylmethoxy)-1H-imidazo[4,5-b]pyridin-2-yl]methyl]-1-oxo-phthalazin-2-yl]acetic acid]
- EC50 (HFL-1 cells [1]): 216 nM
- EC50 (HFL-1 cells [2]): 53.9 nM
- EC50 [3]: 24.3 nM
- EC50 [4]: 19800 nM
- EC50 (S1PR2): 231 nM

Compound: Cc1cccc2c1c(=O)c(CC(=O)O)nn2Cc1cn2cc(OCC3CC3)c(Cl)cc2n1 [Compound 102, 2-[1-[[7-chloro-6-(cyclopropylmethoxy)imidazo[1,2-a]pyridin-2-yl]methyl]-5-methyl-4-oxo-cinnolin-3-yl]acetic acid]
- EC50 (HFL-1 cells [1]): 18 nM
- EC50 ([5]; antagonist readout, CHO cells overexpressing human S1PR1 and Gq, S1P at EC80 (6 nM), read-out: S1P1 EC50 (nM), S1P1 antagonist EC50): ≥ 19800 nM
- EC50 [3]: 3.02 nM
- EC50 [4]: 19800 nM
- EC50 (S1PR2): 30 nM

Compound: CC(C(=O)O)n1nc(Cc2cn3cc(OCC4CC4)c(Cl)cc3n2)c2cc(F)ccc2c1=O (centres unmarked) [Compound 86, 2-[4-[[7-chloro-6-(cyclopropylmethoxy)imidazo[1,2-a]pyridin-2-yl]methyl]-6-fluoro-1-oxo-phthalazin-2-yl]propanoic acid]
- EC50 (HFL-1 cells [1]): 97.1 nM
- EC50 (HFL-1 cells [2]): 0.911 nM
- EC50 [3]: 6.33 nM
- EC50 [4]: 19800 nM
- EC50 (S1PR2): 28.7 nM

Compound: CC(C(=O)O)c1nn(Cc2cn3cc(OCC4CC4)c(C(F)(F)F)cc3n2)c2ccccc2c1=O (centres unmarked) [Compound 100, 2-[1-[[6-(cyclopropylmethoxy)-7-(trifluoromethyl)imidazo[1,2-a]pyridin-2-yl]methyl]-4-oxo-cinnolin-3-yl]propanoic acid]
- EC50 (HFL-1 cells [1]): 63.5 nM
- EC50 (HFL-1 cells [2]): 4.97 nM
- EC50 [3]: 3.45 nM
- EC50 [4]: 19800 nM
- EC50 (S1PR2): 51.1 nM

Compound: O=C(O)Cn1nc(Cn2cc3cc(OCC4CC4)c(Br)cc3n2)c2ccccc2c1=O [Compound 111, 2-[4-[[6-bromo-5-(cyclopropylmethoxy)indazol-2-yl]methyl]-1-oxo-phthalazin-2-yl]acetic acid]
- EC50 (HFL-1 cells [1]): 1080 nM
- EC50 (HFL-1 cells [2]): 42.2 nM
- EC50 [3]: 15.2 nM
- EC50 [4]: 10000 nM
- EC50 (S1PR2): 49 nM

Compound: N#Cc1cc2nc(Cn3nc(C(=O)O)c(=O)c4ccccc43)[nH]c2cc1OCC1CC1 [Compound 110, 1-[[5-cyano-6-(cyclopropylmethoxy)-1H-benzimidazol-2-yl]methyl]-4-oxo-cinnoline-3-carboxylic acid]
- EC50 (HFL-1 cells [1]): 15.2 nM
- EC50 (HFL-1 cells [2]): 2.37 nM
- EC50 [3]: 2.17 nM
- EC50 [4]: 2240 nM
- EC50 (S1PR2): 11.2 nM

Compound: CC(C(=O)O)n1nc(Cc2cn3cc(OCC4CC4)c(Cl)cc3n2)c2ccccc2c1=O (centres unmarked) [Compound 83, 2-[4-[[7-chloro-6-(cyclopropylmethoxy)imidazo[1,2-a]pyridin-2-yl]methyl]-1-oxo-phthalazin-2-yl]propanoic acid]
- EC50 (HFL-1 cells [1]): 125 nM
- EC50 [5]: ≥ 19800 nM
- EC50 [3]: 12.7 nM
- EC50 [4]: 19800 nM
- EC50 (S1PR2): 53.2 nM

Compound: CN(C)CC(C(=O)O)c1nn(Cc2nc3cc(C#N)c(OCC4CC4)cc3[nH]2)c2ccccc2c1=O (centres unmarked) [compound 21, (2-[1-[[5-cyano-6-(cyclopropyl-methoxy)-1H-benzimidazol-2-yl]methyl]-4-oxocinnolin-3-yl]-3-(dimethyl-amino)propanoic acid)]
- EC50 (HFL-1 cells [1]): 52.1 nM
- EC50 (HFL-1 cells [2]): 2.52 nM
- EC50 [3]: 5.4 nM
- EC50 [4]: 19800 nM
- EC50 (S1PR2): 30.4 nM

Compound: CCOc1cc2nc(Cc3nn(CC(=O)O)c(=O)c4c(C)cccc34)[nH]c2cc1Cl [Compound 77, 2-[4-[(6-chloro-5-ethoxy-1H-benzimidazol-2-yl)methyl]-8-methyl-1-oxo-phthalazin-2-yl]acetic acid]
- EC50 (HFL-1 cells [1]): 27.4 nM
- EC50 (HFL-1 cells [2]): 1.63 nM
- EC50 [3]: 29.8 nM
- EC50 [4]: 6610 nM
- EC50 (S1PR2): 241 nM

Compound: O=C(O)c1nn(Cc2nc3cc(OCC4CC4)c(Cl)cc3[nH]2)c2ccccc2c1=O [compound 5, 1-[[6-chloro-5-(cyclopropyl-methoxy)-1H-benzimidazol-2-yl]methyl]-4-oxo-cinnoline-3-carboxylic acid]
- EC50 (HFL-1 cells [1]): 17.5 nM
- EC50 (HFL-1 cells [2]): 1.52 nM
- EC50 [3]: 3.48 nM
- EC50 [4]: 1620 nM
- EC50 (S1PR2): 22 nM
